# Values quoted from earlier work in patent publication US11007501B2, “Reduced permeability microcapsules” (Trucapsol LLC, priority 2018, dated 2021).
row,Substance,Octanol/water Partition Coefficient (logP)
1,Nonalactone,1.3
2,Violiff,2.11
